Source: US4690926A, “Boxazomycin A and B, new antibiotics containing benzoxazole nucleus” (Bristol-Myers Company, priority 1986, dated 1987)
Values after ≈ are worked out from the molar mass of the structure shown.

System: S. epidermidis A22547
Type: cell-based
Conditions: Staphylococcus epidermidis, Nutrient agar (Eiken), kanamycin-resistant

| Compound | MIC [µg/mL] |
| --- | --- |
| Cc1ncc(O)c(-c2nc3c(C(N)=O)c(O)cc(C)c3o2)n1 [Boxazomycin B] | 0.2 (≈ 0.666 µM) |
| NC[C@H]1O[C@H](O[C@H]2[C@H](O)[C@@H](O[C@H]3O[C@H](CO)[C@@H](O)[C@H](N)[C@H]3O)[C@H](N)C[C@@H]2N)[C@H](O)[C@@H](O)[C@@H]1O [Kanamycin, kanamycin, reference compound] | 25 (≈ 51.6 µM) |
| Cc1cc(O)c(C(N)=O)c2nc(-c3nc(CO)ncc3O)oc12 [Boxazomycin A] | 0.4 (≈ 1.26 µM) |
